Results published in patent US20220009894A1, “1,2,3,4-TETRAHYDROQUINOXALINE DERIVATIVE, PREPARATION METHOD THEREFOR AND APPLICATION THEREOF” (Abbisko Therapeutics Co., Ltd., priority 2019, published 2022).

Key:
RORγt = molecular target: T1, RORγt (Homo sapiens, UniProt P51449); assay: RORγt cellular reporter gene detection assay; format: cell-based; conditions: 24 hrs; for EC50: HEK 293 cells co-transfected with pFN26A-RORγt-LBD and pG14.35, in presence of antagonist Ursolic acid, top concentration 50 μM; for Cellular Reporter Assay Amax: upper activation limit, HEK 293 cells, in presence of antagonist Ursolic acid;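 on Cellular Reporter Assay Amax: Ursolic Acid added as 5 µL of 20 µM medium per well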
T1 construct: The plasmid of pFN26A-RORγt-LBD and pG14.35 (Promega, Cat. No. E1370) were co-transfected into HEK 293 cells; expressed in transfected cells; host or cells: HEK 293 cells (Cat. No. GNHu18)
T1 sequence (P51449 269-508 limits assumed): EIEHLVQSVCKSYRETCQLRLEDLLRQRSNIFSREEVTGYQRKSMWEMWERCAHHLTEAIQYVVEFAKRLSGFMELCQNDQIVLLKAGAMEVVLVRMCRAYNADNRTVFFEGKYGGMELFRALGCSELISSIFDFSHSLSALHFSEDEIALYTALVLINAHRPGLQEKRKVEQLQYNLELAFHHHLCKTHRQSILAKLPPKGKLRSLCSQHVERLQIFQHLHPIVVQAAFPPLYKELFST
Procedure, shortened: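 Compounds, titrated 4-fold from a 50 μM top concentration, were added with Ursolic acid to HEK293 cells carrying a RORγt-LBD plasmid and a reporter plasmid. After 24 h at 37° C, dual firefly/Renilla luciferase readout; four-parameter curves gave EC50 and maximal activation (Amax).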

RORγt-LBD = molecular target: T2, RORγt-LBD (Homo sapiens, UniProt P51449); assay: Time-resolved fluorescence resonance energy-transfer assay (TR-FRET), co-activator peptide recruitment; format: biochemical; set-up: TR-FRET Biochemical Amax: unit not given here; conditions: for EC50: His-RORγt-LBD 30 nM, SRC peptide 500 nM, agonistic activity, averages of one or more measurements, read-out: TR-FRET Biochemical EC50/; for TR-FRET Biochemical Amax: upper activation limit, His-RORγt-LBD, SRC peptide
T2 sequence (P51449 269-508 limits assumed): T1 sequence (P51449 269-508 limits assumed)
Procedure, shortened: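 This agonist-mode TR-FRET used 30 nM His-tagged RORγt-LBD, 500 nM biotinylated SRC peptide, 0.25 nM Eu-anti-His and 5 nM APC-streptavidin in pH 7.0 Tris/KCl buffer with DTT and Triton. A 7-concentration, 5-fold compound series was incubated at 4 °C overnight plus 1 h at room temperature, and the 665/615 nm signal was read.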

Row | SMILES | EC50 (RORγt) [nM] | Cellular Reporter Assay Amax (RORγt) | EC50 (RORγt-LBD) [nM] | TR-FRET Biochemical Amax (RORγt-LBD)
1 | C/C(=C\c1ccc2c(c1)N(S(=O)(=O)c1cccc(C(F)(F)F)c1)C[C@@H]1CN(C(C)C(=O)O)CCN21)c1c(F)cccc1Cl (stereo partly drawn) [Example 25, 2-((S)-8-((E)-2-(2-chloro-6-fluorophenyl)prop-1-en-1-yl)-6-((3-(trifluoromethyl)phenyl)sulfonyl)-1,2,4,4a,5,6-hexahydro-3H-pyrazino[1,2-a]quinoxalin-3-yl) propanoic acid] | 441 | 4.4 | 6.35 | 0.84
2 | C/C(=C\c1ccc2c(c1)N(S(=O)(=O)c1cccc(C(F)(F)F)c1)C[C@@H]1CN(CC(=O)OC(C)C)CCN21)c1c(F)cccc1Cl [Example 48, isopropyl (S,E)-2-(8-(2-(2-chloro-6-fluorophenyl)prop-1-en-1-yl)-6-((3-(trifluoromethyl)phe-nyl)sulfonyl)-1,2,4,4a,5,6-hexa-hydro-3H-pyrazino[1,2-a]quinox-alin-3-yl)acetate] | 283 | 1.9 | 10.7 | 0.67
3 | CCOC(=O)CN1CCN2c3ccc(/C=C/c4c(Cl)cccc4C(F)(F)F)cc3N(S(=O)(=O)c3cccc(C(F)(F)F)c3)C[C@@H]2C1 [Example 46, ethyl (S,E)-2-(8-(2-chloro-6-(trifluoromethyl)styryl)-6-((3-(trifluoromethyl)phenyl)sulfonyl)-1,2,4,4a,5,6-hexahydro-3H-pyrazino [1,2-a]quinoxalin-3-yl)acetate] | 924 | 4.0 | 5.29 | 0.72
4 | O=S(=O)(c1cccc(C(F)(F)F)c1)N1C[C@@H]2CNCCN2c2ccc(-c3cc(F)cc(OC(F)F)c3)cc21 [Example 12, (S)-8-(3-(difluoromethoxy)-5-fluorophenyl)-6-((3-(trifluoromethyl)phenyl)sulfonyl)-2,3,4,4a,5,6-hexa-hydro-1H-pyrazino[1,2-a]quinoxaline] | 2390 | 4.3 | 136 | 0.67
5 | C/C(=C\c1ccc2c(c1)N(S(=O)(=O)c1cccc(C(F)(F)F)c1)C[C@@H]1CN(C(C)(CO)CO)CCN21)c1c(F)cccc1Cl [Example 71, (S,E)-2-(8-(2-(2-chloro-6-fluorophenyl)prop-1-en-1-yl)-6-((3-(trifluoromethyl)phenyl)sulfonyl)-1,2,4,4a,5,6-hexahydro-3H-pyrazino[1,2-a]quinoxalin-3-yl)-2-methylpropane-1,3-diol] | 498 | 3.5 | 40.5 | 0.97
6 | O=S(=O)(c1cccc(C(F)(F)F)c1)N1C[C@@H]2CN(C[C@@H](O)CO)CCN2c2ccc(/C=C/c3c(Cl)cccc3C(F)(F)F)cc21 [Example 35, (R)-3-((S)-8-((E)-2-chloro-6-(trifluoromethyl)styryl)-6-((3-(trifluoromethyl)phenyl)sulfonyl)-1,2,4,4a,5,6-hexahydro-3H-pyrazino[1,2-a]quinoxalin-3-yl)propane-1,2-diol] | 467 | 4.2 | 24 | 1.15
7 | CC(C)OC(=O)CN1CCN2c3ccc(/C=C/c4c(Cl)cccc4C(F)(F)F)cc3N(S(=O)(=O)c3cccc(C(F)(F)F)c3)C[C@@H]2C1 [Example 47, isopropyl (S,E)-2-(8-(2-chloro-6-(trifluoromethyl)styryl)-6-((3-(trifluoromethyl)phenyl)sulfonyl)-1,2,4,4a,5,6-hexahydro-3H-pyrazino[1,2-a]quinoxalin-3-yl) acetate] | 750 | 2.1 | 3.51 | 0.77
8 | CS(=O)(=O)N1CCN2c3ccc(/C=C/c4c(Cl)cccc4C(F)(F)F)cc3N(S(=O)(=O)c3cccc(C(F)(F)F)c3)C[C@@H]2C1 [Example 17, (S,E)-8-(2-chloro-6-(tri-fluoromethyl)styryl)-3-(methylsulfonyl)-6-((3-(trifluoromethyl)phenyl)sulfonyl)-2,3,4,4a,5,6-hexahydro-1H-pyrazino [1,2-a]quinoxaline] | 603 | 4.2 | 29.6 | 0.82
9 | NS(=O)(=O)N1CCN2c3ccc(-c4cc(F)cc(OC(F)F)c4)cc3N(S(=O)(=O)c3cccc(C(F)(F)F)c3)C[C@@H]2C1 [Example 67, (R)-8-(3-(difluoromethoxy)-5-fluoro-phenyl)-6-((3-(trifluorometh-yl)phenyl)sulfonyl)-1,2,4,4a,5,6-hexahydro-3H-pyrazino[1,2-a]quinoxaline-3-sulfonamide] | 158 | 3.3 | 19.7 | 0.87
10 | O=S(=O)(c1cccc(C(F)(F)F)c1)N1CCNc2ccc(-c3cc(F)cc(OC(F)F)c3)cc21 [Example 2, 7-(3-(difluoromethoxy)-5-fluorophenyl)-1-((3-(trifluoromethyl)phenyl)sulfonyl)-1,2,3,4-tetrahydroquinoxaline] | 163 | 3.1 | 18.1 | 1.85
11 | N#CCC(=O)N1CCN2c3ccc(/C=C/c4c(Cl)cccc4C(F)(F)F)cc3N(S(=O)(=O)c3cccc(C(F)(F)F)c3)C[C@@H]2C1 [Example 29, (S,E)-3-(8-(2-chloro-6-(tri-fluoromethyl)styryl)-6-((3-(trifluoromethyl)phenyl)sulfonyl)-1,2,4,4a,5,6-hexa-hydro-3H-pyrazino[1,2-a]quinoxalin-3-yl)-3-oxopro-panenitrile] | 1980 | 6.7 | 17.3 | 0.84
12 | CC1(C)C=C(c2ccc3c(c2)N(S(=O)(=O)c2cccc(C(F)(F)F)c2)C[C@@H]2CN(C4COC4)CCN32)CC(C)(C)O1 [Example 34, (S)-3-(oxetan-3-yl)-8-(2,2,6,6-tetramethyl-3,6-dihydro-2H-pyran-4-yl)-6-((3-(trifluoro-methyl)phenyl)sulfonyl)-2,3,4,4a,5,6-hexahydro-1H-pyrazino[1,2-a]quinoxaline] | 156 | 1.7 | 3.91 | 1.11

Continued, values first:

Row | EC50 (RORγt) [nM] | Cellular Reporter Assay Amax (RORγt) | EC50 (RORγt-LBD) [nM] | TR-FRET Biochemical Amax (RORγt-LBD) | SMILES
13 | 178 | 5.4 | 67.9 | 0.71 | O=C(O)CCO[C@@H]1CCN2c3ccc(-c4cc(F)cc(OC(F)F)c4)cc3N(S(=O)(=O)c3cccc(C(F)(F)F)c3)C[C@@H]2C1 [Example 115, 3-(((6aS,8R)-3-(3-(difluorometh-oxy)-5-fluorophenyl)-5-((3-(tri-fluoromethyl)phenyl)sulfonyl)-6,6a,7,8,9,10-hexahydro-5H-pyrido[1,2-a]quinoxalin-8-yl)oxy)propanoic acid]
14 | 3550 | 1.8 | 159 | 0.27 | N#Cc1cccc(-c2ccc3c(c2)N(S(=O)(=O)c2cccc(C(F)(F)F)c2)C[C@@H]2CN(CC(=O)O)CCN32)c1F [Example 94, (S)-2-(8-(3-cyano-2-fluorophenyl)-6-((3-(trifluoromethyl)phenyl)sulfonyl)-1,2,4,4a,5,6-hexahydro-3H-pyrazino[1,2-a]quinoxalin-3-yl)acetic acid]
15 | 264 | 2.1 | 46.4 | 0.51 | COc1ncc(C(F)(F)F)cc1S(=O)(=O)N1C[C@@H]2CN(CC(=O)O)CCN2c2ccc(-c3cc(F)cc(OC(F)F)c3)cc21 [Example 93, (S)-2-(8-(3-(difluoromethoxy)-5-fluorophenyl)-6-((2-methoxy-5-(trifluoromethyl)pyridin-3-yl)sulfonyl)-1,2,4,4a,5,6-hexahydro-3H-pyrazino[1,2-a]quinoxalin-3-yl)acetic acid]
16 | 344 | 2.3 | 46.3 | 0.81 | NC(=O)OC1CCN2c3ccc(-c4cc(F)cc(OC(F)F)c4)cc3N(S(=O)(=O)c3cccc(C(F)(F)F)c3)C[C@@H]2C1 (stereo partly drawn) [Example 104, (6aS)-3-(3-(difluoromethoxy)-5-fluorophenyl)-5-((3-(trifluoromethyl)phenyl)sulfonyl)-6,6a,7,8,9,10-hexahydro-5H-pyrido[1,2-a]quinoxalin-8-yl carbamate]
17 | 1980 | 4.0 | 55.4 | 0.99 | C[C@]1(O)CCN2c3ccc(-c4cc(F)cc(OC(F)F)c4)cc3N(S(=O)(=O)c3cccc(C(F)(F)F)c3)C[C@@H]2C1 [Example 108, (6aS,8S)-3-(3-(difluoromethoxy)-5-fluorophenyl)-8-methyl-5-((3-(trifluoromethyl)phenyl)sulfo-nyl)-6,6a,7,8,9,10-hexa-hydro-5H-pyrido[1,2-a]quinoxalin-8-ol]
